Key:
Assay type in all cases: cell-based
LPA receptor LPAR5 [1] = target: T1, LPA receptor LPAR5 (Homo sapiens, UniProt Q9H1C0); test: FLIPR assay, intracellular Ca2+ release in human mast cell line HMC-1; design: two cell lines were used with high LPAR5 expression; endogenous in cells; host or cells: HMC-1 human mast cell line; conditions: human mast cell line HMC-1, LPA-stimulated Ca2+ release, test compounds added 10 minutes prior LPA
Description: (§1) B) Use of the Fluorometric Imaging Plate Reader (FLIPR) Assay for the Determination of Intracellular Ca^2+ Release in Human Mast Cell Line HMC-1 and the Murine Microglia Cell Line BV-2
(§2) The ability of the compounds of the formula I to inhibit or bind the LPA receptor LPAR5 can be assessed by determining the intracellular Ca^2+ release in human or animal cells. For the analysis of activating potential of LPA and the inhibitory effects of compounds of the formula I two cell lines were used with high LPAR5 expression, the human mast cell line HMC-1 and the murine microglia cell line BV-2 (Figures 1 and 2). For the FLIPR assay using human mast cells in a 96-well-format, HMC-1 suspension cells from flask culture were harvested, resuspended and counted. 14×10^6 HMC-1 cells were transferred into a new 50 ml tube, centrifuged for 3 minutes at 540×g. The resulting cell pellet at the bottom of the tube was resuspended with 15 ml loading buffer (loading buffer contained HBSS buffer (pH 7.4), 0.1% BSA (bovine serum albumin), 2 μM FLUO-4 dye; HBSS buffer (pH 7.4) contained 1×HBSS, 20 mM HEPES, 0.01% Pluronic F-127, 2.5 mM Probenicid).
Cells in loading buffer were incubated for 45-60 minutes at 37° C. After incubation cells were centrifuged for 3 minutes at 540×g and resuspended with 21 ml of HBSS buffer (pH 7.4). Each well of a poly-D-lysine coated 96-well-plate was filled with 150 μl cell solution, an equivalent of 100 000 cells/well. The 96-well-plate was centrifuged for 2 minutes at 100×g (without brake) prior a recovery time of 30 minutes at 37° C. After this procedure cells were stimulated with LPA (in HBSS pH 7.4 and 0.1% BSA) to determine the EC50 of LPA in HMC-1 cells. For the determination of the inhibitory effect of compounds of the formula I, test compounds were added to the cells in the 96-well-plate 10 minutes prior the addition of LPA. Results of the assay are expressed as % activation, and are calculated using maximum peak of activation (Amax). The IC50 data of the above described FLIPR assay using human mast cell line HMC-1 for exemplary compounds of the present invention are shown in Table 2. Adherent BV-2 cells were seeded onto poly-D-lysine coated 96-well-plates (100000 cells/well) the day before performing the FLIPR assay. The density of the cells in the 96-well-plate at the day of the FLIPR assay should be 90%. After aspiration of the culture media, BV-2 cells were incubated for 30 minutes at 37° C. with loading buffer and recovered in 150 μl HBSS buffer for 30 minutes at 37° C. After this procedure cells were stimulated with LPA (in HBSS pH 7.4 and 0.1% BSA) to determine the EC50 of LPA in BV-2 cells. For the determination of the inhibitory effect of compounds of the formula I, test compounds were added to the cells in the 96-well-plate 10 minutes prior the addition of LPA. The IC50 data of the above described FLIPR assay using the murine microglia cell line BV-2 for exemplary compounds of the present invention are shown in Table 3.

LPA receptor LPAR5 [2] = target: T1, LPA receptor LPAR5; test: Aggregation assay for washed human blood platelets (LPA-induced); conditions: reduction of the maximal aggregation, 5 minutes incubation at 37° C.
Method: A) Aggregation Assay for Washed Human Blood Platelets (Thrombocytes)
Whole blood was collected from healthy volunteers using 3×20 ml syringes containing each 1/10 volume of buffered citrate. The anticoagulated whole blood was transferred into 50 ml polypropylene conical tubes (30 ml per tube). The tubes were centrifuged for 10 minutes at 150×g at room temperature without using the centrifuge brake. This procedure results in a lower phase of cellular components and a supernatant (upper phase) of platelet rich plasma (PRP). The PRP phase was collected from each tube and pooled for each donor. To avoid carry over of cellular components following first centrifugation, approximately 5 ml of PRP was left in the tube. The platelet concentration was determined using a ABX Micros 60 counter. The PRP phase was transferred to a new 50 ml tube. After 10 minutes standing at room temperature, 1 μl PGI2 (1 mM in Tris-HCl/pH 8.8) and 180 μl ACD/A were added per ml PRP. The PRP was then transferred to new 10 ml tube and centrifuged for 10 minutes at 500×g. After centrifugation a cellular pellet is visible at the bottom of the tube. The supernatant was carefully discarded and the cellular pellet, consisting of human blood platelets was then dissolved in 10 ml buffer T (buffer T composition: 145 mM NaCl, 5 mM KCl, 0.1 mM MgCl2×6 H2O, 15 mM HEPES, 5.5 mM glucose, pH 7.4). Platelet concentration in this solution was determined and buffer T was added to obtain a final concentration of 3.5×10^5 platelets per ml.
After 10 minutes at room temperature, 1 μl PGI2 per ml platelet solution was added and distributed into new 10 ml tubes. After a centrifugation step, 10 minutes at 500×g, supernatant was discarded and the platelets were resuspended in buffer T to a final concentration of 3.5×10^5 platelets per ml buffer T. Before use, platelet-containing buffer equilibrated for 30 minutes at room temperature. The human platelet aggregation assay was performed in single use cuvettes using the Platelet Aggregation Profiler® (PAP-4 or -8E, BIO/DATA Corporation). For a single experiment, 320 μl of platelet solution were transferred into an assay cuvette, 20 μl of calcium citrate solution (10 mM in H2O) and 20 μl of fibrinogen solution (20 mg/ml H2O) were added. The aggregation assay was performed in the assay cuvette at 37° C. and with 1.200 rpm stirring. To determine the EC50, eight assay cuvettes were loaded as described above with different concentrations of LPA. Aggregation was measured over 6 minutes at 37° C. with 1200 rpm (revolutions per minute) stirring. Results of the assay are expressed as % activation, and are calculated using maximum aggregation (Tmax) or area under curve (AUC) of the absorbance over 6 minutes. The inhibitory effect (IC50) of the test compounds was determined as the reduction of the maximal aggregation. Test compound was added prior starting the experiment with an incubation time of the test compound of 5 minutes at 37° C. with 1200 rpm stirring. The IC50 data of the above described platelet aggregation assay using human washed platelets for exemplary compounds of the present invention are shown in Table 1.

LPA receptor LPAR5 [3] = target: T2, LPA receptor LPAR5 (Mus musculus, UniProt Q149R9); test: FLIPR assay, intracellular Ca2+ release in murine microglia cell line BV-2; conditions: murine microglia cell line BV-2, LPA-stimulated Ca2+ release, test compounds added 10 minutes prior LPA
T2 construct: two cell lines were used with high LPAR5 expression; endogenous in cells; host or cells: BV-2 murine microglia cell line
Description: as §1, §2
Cells in loading buffer were incubated for 45-60 minutes at 37° C. After incubation cells were centrifuged for 3 minutes at 540×g and resuspended with 21 ml of HBSS buffer (pH 7.4). Each well of a poly-D-lysine coated 96-well-plate was filled with 150 μl cell solution, an equivalent of 100 000 cells/well. The 96-well-plate was centrifuged for 2 minutes at 100×g (without brake) prior a recovery time of 30 minutes at 37° C. After this procedure cells were stimulated with LPA (in HBSS pH 7.4 and 0.1% BSA) to determine the EC50 of LPA in HMC-1 cells. For the determination of the inhibitory effect of compounds of the formula I, test compounds were added to the cells in the 96-well-plate 10 minutes prior the addition of LPA. Results of the assay are expressed as % activation, and are calculated using maximum peak of activation (Amax). […]

T2 sequence (Q149R9 whole entry): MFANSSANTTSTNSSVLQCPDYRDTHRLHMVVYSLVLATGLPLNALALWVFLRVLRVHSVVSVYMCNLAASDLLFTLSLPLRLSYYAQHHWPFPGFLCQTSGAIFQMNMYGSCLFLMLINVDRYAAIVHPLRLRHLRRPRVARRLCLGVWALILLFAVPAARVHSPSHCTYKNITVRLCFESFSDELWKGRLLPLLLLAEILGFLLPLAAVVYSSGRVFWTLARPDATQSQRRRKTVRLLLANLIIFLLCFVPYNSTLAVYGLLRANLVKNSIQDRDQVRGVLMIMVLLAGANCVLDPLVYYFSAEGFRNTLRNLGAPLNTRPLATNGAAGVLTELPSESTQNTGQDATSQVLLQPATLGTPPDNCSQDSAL
T1 sequence (Q9H1C0 whole entry): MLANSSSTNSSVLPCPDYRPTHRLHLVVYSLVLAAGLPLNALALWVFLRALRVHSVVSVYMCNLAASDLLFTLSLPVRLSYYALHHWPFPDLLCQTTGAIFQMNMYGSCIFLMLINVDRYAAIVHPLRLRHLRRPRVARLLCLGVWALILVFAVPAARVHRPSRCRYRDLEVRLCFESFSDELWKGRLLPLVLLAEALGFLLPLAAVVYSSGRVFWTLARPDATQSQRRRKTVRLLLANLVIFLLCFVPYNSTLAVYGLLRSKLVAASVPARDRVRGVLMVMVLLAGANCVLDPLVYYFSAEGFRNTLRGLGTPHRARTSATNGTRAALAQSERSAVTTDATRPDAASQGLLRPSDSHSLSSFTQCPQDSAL

| IC50 (LPA receptor LPAR5 [1]) [µM] | IC50 (LPA receptor LPAR5 [2]) [µM] | IC50 (LPA receptor LPAR5 [3]) [µM] | Structure (SMILES) |
| --- | --- | --- | --- |
| 2.5 |  |  | O=C(O)C1Oc2ccc(Br)cc2C(C2CCCCC2)(C2CCCCC2)O1 (centres unmarked) [Example 50, 6-Bromo-4,4-dicyclohexyl-4H-benzo[1,3]dioxine-2-carboxylic acid] |
| 7.7 |  |  | O=c1[nH]nc(C2Oc3ccc(Cl)cc3C(C3CCCCC3)(C3CCCCC3)O2)o1 (centres unmarked) [Example 63, 5-(6-Chloro-4,4-dicyclohexyl-4H-benzo[1,3]dioxin-2-yl)-3H-[1,3,4]oxadiazol-2-one] |
| 3.6 | 11.3 |  | O=C(O)C1Oc2cc(OCc3ccccc3)ccc2C(C2CCCCC2)(C2CCCCC2)O1 (centres unmarked) [Example 37, 7-Benzyloxy-4,4-dicyclohexyl-4H-benzo[1,3]dioxine-2-carboxylic acid] |
| 3.2 | 5.4 |  | O=C(O)C1Oc2c(OC(F)(F)F)cccc2C(C2CCCCC2)(C2CCCCC2)O1 (centres unmarked) [Example 46, 4,4-Dicyclohexyl-8-trifluoromethoxy-4H-benzo[1,3]dioxine-2-carboxylic acid] |
| 3.1 |  |  | O=C(O)C1Oc2ccc3c(c2C(C2CCCCC2)(C2CCCCC2)O1)CCCC3 (centres unmarked) [Example 45, 1,1-Dicyclohexyl-7,8,9,10-tetrahydro-1H-naphtho[2,1-d][1,3]dioxine-3-carboxylic acid] |
| 2.4 |  |  | O=C(O)C1Oc2ccc(Cl)cc2C(C2CCCCCC2)(C2CCCCCC2)O1 (centres unmarked) [Example 55, 6-Chloro-4,4-dicycloheptyl-4H-benzo[1,3]dioxine-2-carboxylic acid] |
|  | 2.4 |  | COc1cc(C)c2c(c1)OC(C(=O)O)OC2(C1CCCCC1)C1CCCCC1 (centres unmarked) [Example 36, 4,4-Dicyclohexyl-7-methoxy-5-methyl-4H-benzo[1,3]dioxine-2-carboxylic acid] |
| 3.3 |  |  | Cc1cc2c(cc1Cl)C(C1CCCCC1)(C1CCCCC1)OC(C(=O)O)O2 (centres unmarked) [Example 43, 6-Chloro-4,4-dicyclohexyl-7-methyl-4H-benzo[1,3]dioxine-2-carboxylic acid] |
| 3.2 |  |  | O=c1[nH]c(C2Oc3ccc(Cl)cc3C(C3CCCCC3)(C3CCCCC3)O2)no1 (centres unmarked) [Example 61, 3-(6-Chloro-4,4-dicyclohexyl-4H-benzo[1,3]dioxin-2-yl)-4H-[1,2,4]oxadiazol-5-one] |
| 3.6 |  |  | Clc1ccc2c(c1)C(C1CCCCC1)(C1CCCCC1)OC(c1nnn[nH]1)O2 (centres unmarked) [Example 60, 5-(6-Chloro-4,4-dicyclohexyl-4H-benzo[1,3]dioxin-2-yl)-1H-tetrazole] |
| 3.6 | 2.7 |  | CCN(CC)c1ccc2c(c1)OC(C(=O)O)OC2(C1CCCCC1)C1CCCCC1 (centres unmarked) [Example 49, 4,4-Dicyclohexyl-7-diethylamino-4H-benzo[1,3]dioxine-2-carboxylic acid] |

More lines, now with the values behind:

| Structure (SMILES) | IC50 (LPA receptor LPAR5 [1]) [µM] | IC50 (LPA receptor LPAR5 [2]) [µM] | IC50 (LPA receptor LPAR5 [3]) [µM] |
| --- | --- | --- | --- |
| CCOc1cccc2c1C(C1CCCCC1)(C1CCCCC1)OC(C(=O)O)O2 (centres unmarked) [Example 30, 4,4-Dicyclohexyl-5-ethoxy-4H-benzo[1,3]dioxine-2-carboxylic acid] |  | 5.9 |  |
| O=C(O)C1Oc2cc(-n3cccc3)ccc2C(C2CCCCC2)(C2CCCCC2)O1 (centres unmarked) [Example 2, 4,4-Dicyclohexyl-7-pyrrol-1-yl-4H-benzo[1,3]dioxine-2-carboxylic acid] | 3.4 |  |  |
| O=C(O)C1Oc2ccc3ccccc3c2C(C2CCCCC2)(C2CCCCC2)O1 (centres unmarked) [Example 33, 1,1-Dicyclohexyl-1H-naphtho[2,1-d][1,3]dioxine-3-carboxylic acid] | 3.3 |  |  |
| COc1cc(OC)c2c(c1)OC(C(=O)O)OC2(C1CCCCC1)C1CCCCC1 (centres unmarked) [Example 7, 4,4-Dicyclohexyl-5,7-dimethoxy-4H-benzo[1,3]dioxine-2-carboxylic acid] | 4.4 |  |  |
| O=C(O)C1Oc2ccc(-c3ccccc3)cc2C(C2CCCCC2)(C2CCCCC2)O1 (centres unmarked) [Example 35, 4,4-Dicyclohexyl-6-phenyl-4H-benzo[1,3]dioxine-2-carboxylic acid] | 3.8 |  |  |
| CCCCOc1ccc2c(c1)OC(C(=O)O)OC2(C1CCCCC1)C1CCCCC1 (centres unmarked) [Example 31, 7-Butoxy-4,4-dicyclohexyl-4H-benzo[1,3]dioxine-2-carboxylic acid] | 5.2 |  |  |
| O=C(O)C1Oc2ccc(OC(F)(F)F)cc2C(C2CCCCC2)(C2CCCCC2)O1 (centres unmarked) [Example 18, 4,4-Dicyclohexyl-6-trifluoromethoxy-4H-benzo[1,3]dioxine-2-carboxylic acid] | 1.5 |  | 1.5 |
| Cc1cccc2c1OC(C(=O)O)OC2(C1CCCCC1)C1CCCCC1 (centres unmarked) [Example 12, 4,4-Dicyclohexyl-8-methyl-4H-benzo[1,3]dioxine-2-carboxylic acid] |  |  | 8 |
| O=C(O)C1Oc2c(Cl)cc(Cl)cc2C(C2CCCCC2)(C2CCCCC2)O1 (centres unmarked) [Example 32, 6,8-Dichloro-4,4-dicyclohexyl-4H-benzo[1,3]dioxine-2-carboxylic acid] | 3.5 |  |  |
| O=C(O)C1Oc2ccc(Oc3ccc(Cl)cc3)cc2C(C2CCCCC2)(C2CCCCC2)O1 (centres unmarked) [Example 22, 6-(4-Chloro-phenoxy)-4,4-dicyclohexyl-4H-benzo[1,3]dioxine-2-carboxylic acid] | 2.6 |  |  |
| O=C(O)C1Oc2ccc(Cl)cc2C(C2CCCCC2)(C2CCCCC2)O1 (centres unmarked) [Example 1, 6-Chloro-4,4-dicyclohexyl-4H-benzo[1,3]dioxine-2-carboxylic acid] | 3.2 | 1.1 | 4.1 |
| O=C(c1ccc(Cl)cc1)c1ccc2c(c1)C(C1CCCCC1)(C1CCCCC1)OC(C(=O)O)O2 (centres unmarked) [Example 26, 6-(4-Chloro-benzoyl)-4,4-dicyclohexyl-4H-benzo[1,3]dioxine-2-carboxylic acid] | 3.4 |  |  |

— patent publication US9221784B2, “Benzo[1,3]dioxine derivatives and their use as LPAR5 antagonists” (SANOFI, priority 2012, dated 2015)
